According to patent US11230526B1, “Cylcoalkenyl derivatives useful as agonists of the GPR120 and/or GPR40 receptors” (Janssen Pharmaceutica NV, priority 2018, dated 2022):

Assays:
Human GPR120 short form = target: T1, Human GPR120 short form (Homo sapiens, UniProt Q5NUL3); assay: Human GPR120 calcium flux assay, Procedure Calcium B (4200 cells/well); assay type: cell-based
T1 construct: expressed in transfected cells
T1 sequence (Q5NUL3 1-361): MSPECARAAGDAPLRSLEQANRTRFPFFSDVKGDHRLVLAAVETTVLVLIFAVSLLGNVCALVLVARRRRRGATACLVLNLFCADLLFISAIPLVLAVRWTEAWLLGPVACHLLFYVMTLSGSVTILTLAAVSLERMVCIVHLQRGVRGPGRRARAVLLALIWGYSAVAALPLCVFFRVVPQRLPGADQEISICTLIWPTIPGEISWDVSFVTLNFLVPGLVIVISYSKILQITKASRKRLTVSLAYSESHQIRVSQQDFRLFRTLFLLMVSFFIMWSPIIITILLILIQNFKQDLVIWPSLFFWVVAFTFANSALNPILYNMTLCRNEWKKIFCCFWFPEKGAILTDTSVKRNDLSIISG
In short: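 Agonist EC50 came from a four-parameter fit of RFU (Fmax−Fmin) read over 300 s on FLIPR. Cells were HEK293 stably transfected with human GPR120 (NM_001195755.1) at 4200 per well, serum-starved 1 h and loaded with Fluo-4 NW dye with probenecid before ligand addition.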

human GPR40 = target: T2, human GPR40 (Homo sapiens, UniProt O14842); assay: GPR40 calcium flux assay, human GPR40; assay type: cell-based; conditions: HEK293 cells stably expressing GPR40; table does not say human or rat
T2 construct: expressed in transfected cells
T2 sequence (O14842 whole entry): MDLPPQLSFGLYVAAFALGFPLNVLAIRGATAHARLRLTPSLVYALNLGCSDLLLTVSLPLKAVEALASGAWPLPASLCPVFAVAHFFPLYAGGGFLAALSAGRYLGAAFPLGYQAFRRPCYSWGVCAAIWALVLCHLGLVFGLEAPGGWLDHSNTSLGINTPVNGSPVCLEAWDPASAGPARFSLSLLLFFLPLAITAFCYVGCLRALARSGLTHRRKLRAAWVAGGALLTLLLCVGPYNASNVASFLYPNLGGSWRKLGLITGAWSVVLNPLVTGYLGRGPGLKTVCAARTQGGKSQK
In short: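 Cells preincubated 1 h at 37° C. in HBSS, 20 mM HEPES, 0.1% BSA, then Fluo 8 calcium dye 30 min at 37° C. and 15 min at room temperature.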

Row | SMILES | EC50 (Human GPR120 short form) [nM] | EC50 (human GPR40) [nM]
1 | O=C(O)CCc1ccc(OCC2=C(Cc3ccc(Cl)cc3)CCC2)cc1C(F)(F)F [Compound 359, 3-[4-[[2-[(4-chlorophenyl)methyl]cyclopenten-1-yl]methoxy]-2-(trifluoromethyl)phenyl]Propanoic Acid] | 3110 | 81
2 | Cc1cc(OCC2=C(Cc3ccc(Cl)cc3)CCC2)c(F)cc1CCC(=O)O [Compound 360, 3-[4-[[2-[(4-chlorophenyl)methyl]cyclopenten-1-yl]methoxy]-5-fluoro-2-methyl-phenyl]Propanoic Acid] | > 5000 | 972
3 | O=C(O)CCc1ccc(OCC2=C(Cc3cccc(F)c3)CCC2)cc1C(F)(F)F [Compound 361, 3-[4-[[2-[(3-fluorophenyl)methyl]cyclopenten-1-yl]methoxy]-2-(trifluoromethyl)phenyl]Propanoic Acid] | 3300 | 131
4 | O=C(O)CCc1ccc(OCC2=C(Cc3cccc(F)c3)CCC2)cc1Cl [Compound 362, 3-[2-chloro-4-[[2-[(3-fluorophenyl)methyl]cyclopenten-1-yl]methoxy]phenyl]Propanoic Acid] | > 5000 | 159
5 | Cc1cc(OCC2=C(Cc3cccc(F)c3)CCC2)c(F)cc1CCC(=O)O [Compound 363, 3-[5-fluoro-4-[[2-[(3-fluorophenyl)methyl]cyclopenten-1-yl]methoxy]-2-methyl-phenyl]Propanoic Acid] | > 5000 | 1700
6 | O=C(O)CCc1ccc(OCC2=C(Cc3ccccc3)CC(F)(F)C2)cc1Cl [Compound 364, 3-[4-[(2-benzyl-4,4-difluoro-cyclopenten-1-yl)methoxy]-2-chloro-phenyl]Propanoic Acid] | 891 | 49
7 | CCCCC1=C(COc2ccc(CCC(=O)O)cc2)CCC1 [Compound 365] | 496 | 991
8 | CC1CCC(c2ccccc2)=C1COc1ccc(CCC(=O)O)cc1 (stereo not shown) [Compound 366, 3-[4-[(5-methyl-2-phenyl-cyclopenten-1-yl)methoxy]phenyl]Propanoic Acid] | 1140 | > 10000
9 | CC1CCC(c2ccccc2)=C1COc1ccc(CCC(=O)O)c(C(F)(F)F)c1 (stereo not shown) [Compound 367, 3-[4-[(5-methyl-2-phenyl-cyclopenten-1-yl)methoxy]-2-(trifluoromethyl)phenyl]Propanoic Acid] | 1140 | 1510
10 | O=C(O)CCc1ccc(OCC2=C(CC3CCCCC3)CCC2)cc1C(F)(F)F [Compound 369, 3-[4-[[2-(cyclohexylmethyl)cyclopenten-1-yl]methoxy]-2-(trifluoromethyl)phenyl]Propanoic Acid] | > 5000 | 125
11 | CCCCC1=C(COc2ccc(CCC(=O)O)c(C(F)(F)F)c2)CCC1 [Compound 370, 3-[4-[(2-butylcyclopenten-1-yl)methoxy]-2-(trifluoromethyl)phenyl]Propanoic Acid] | 1150 | 133
12 | O=C(O)CCc1ccc(OCC2=C(CCc3ccccc3)CCC2)cc1C(F)(F)F [Compound 372, 3-[4-[(2-phenethylcyclopenten-1-yl)methoxy]-2-(trifluoromethyl)phenyl]Propanoic Acid] | 2350 | 197
13 | Cc1cc(OCC2=C(C3CC3)CCC2)c(F)cc1CCC(=O)O [Compound 373, 3-[4-[(2-cyclopropylcyclopenten-1-yl)methoxy]-5-fluoro-2-methyl-phenyl]Propanoic Acid] | 1450 | 2380
14 | CC(C)CCC1=C(COc2ccc(CCC(=O)O)c(C(F)(F)F)c2)CCC1 [Compound 374, 3-[4-[(2-isopentylcyclopenten-1-yl)methoxy]-2-(trifluoromethyl)phenyl]Propanoic Acid] | 1430 | 199
15 | Cc1cc(OCC2=C(c3ccc(Cl)cc3)CC(F)(F)C2)c(F)cc1CCC(=O)O [Compound 375] | 88 | 962
16 | CC(C)C1=C(COc2ccc(CCC(=O)O)c(C(F)(F)F)c2)CCC1 [Compound 377, 3-[4-[(2-isopropylcyclopenten-1-yl)methoxy]-2-(trifluoromethyl)phenyl]Propanoic Acid] | 493 | 42
17 | CCC(CC)C1=C(COc2ccc(CCC(=O)O)c(C(F)(F)F)c2)CCC1 [Compound 380, 3-[4-[[2-(1-ethylpropyl)cyclopenten-1-yl]methoxy]-2-(trifluoromethyl)phenyl]Propanoic Acid] | > 5000 | 84
18 | CC(C)CC1=C(COc2ccc(CCC(=O)O)c(C(F)(F)F)c2)CC(F)(F)C1 [Compound 381, 3-[4-[(4,4-difluoro-2-isobutyl-cyclopenten-1-yl)methoxy]-2-(trifluoromethyl)phenyl]Propanoic Acid] | 1650 | 150

Row | SMILES | EC50 (Human GPR120 short form) [nM] | EC50 (human GPR40) [nM]
19 | O=C(O)CCc1ccc(OCC2=C(C3CCC3)CC(F)(F)C2)cc1C(F)(F)F [Compound 382, 3-[4-[(2-cyclobutyl-4,4-difluoro-cyclopenten-1-yl)methoxy]-2-(trifluoromethyl)phenyl]Propanoic Acid] | 635 | 46
20 | CC(C)CC1=C(COc2ccc(CCC(=O)O)cc2)CCC1 [Compound 384, 3-[4-[(2-isobutylcyclopenten-1-yl)methoxy]phenyl]Propanoic Acid] | 677 | 635
21 | CC(C)CC1=C(COc2ccc(CCC(=O)O)c(C(F)(F)F)c2)CCC1 [Compound 385, 3-(4-((2-isobutylcyclopent-1-en-1-yl)methoxy)-2-(trifluoromethyl)phenyl)Propanoic Acid] | 708 | 12
22 | O=C(O)CCc1ccc(OCC2=C(C3CCCCC3)CCC2)cc1C(F)(F)F [Compound 386, 3-[4-[(2-cyclohexylcyclopenten-1-yl)methoxy]-2-(trifluoromethyl)phenyl]Propanoic Acid] | 1700 | 92
23 | CC(C)(C)CC1=C(COc2ccc(CCC(=O)O)c(C(F)(F)F)c2)CCC1 [Compound 387, 3-[4-[[2-(2,2-dimethylpropyl)cyclopenten-1-yl]methoxy]-2-(trifluoromethyl)phenyl]Propanoic Acid] | > 5000 | 71
24 | CCC(C)C1=C(COc2ccc(CCC(=O)O)c(C(F)(F)F)c2)CCC1 (stereo not shown) [Compound 388, 3-[4-[(2-sec-butylcyclopenten-1-yl)methoxy]-2-(trifluoromethyl)phenyl]Propanoic Acid] | 1630 | 86
25 | CCCC1=C(COc2ccc(CCC(=O)O)c(C(F)(F)F)c2)CCC1 [Compound 389, 3-[4-[(2-propylcyclopenten-1-yl)methoxy]-2-(trifluoromethyl)phenyl]Propanoic Acid] | 750 | 51
26 | O=C(O)CCc1ccc(OCC2=C(C3CC4CCC3C4)CCC2)cc1C(F)(F)F (stereo not shown) [Compound 390, 3-[4-[(2-norbornan-2-ylcyclopenten-1-yl)methoxy]-2-(trifluoromethyl)phenyl]Propanoic Acid] | 1190 | 23
27 | Cc1cc(OCC2=C(c3ccc(Br)cc3)CC(F)(F)C2)c(F)cc1CCC(=O)O [Compound 392, 3-[4-[[2-(4-bromophenyl)-4,4-difluoro-cyclopenten-1-yl]methoxy]-5-fluoro-2-methyl-phenyl]Propanoic Acid] | 223 | 1400
28 | O=C(O)CCc1ccc(OCC2=C(c3ccc(Br)cc3)CC(F)(F)C2)cc1Cl [Compound 393, 3-[4-[[2-(4-bromophenyl)-4,4-difluoro-cyclopenten-1-yl]methoxy]-2-chloro-phenyl]Propanoic Acid] | 291 | 420
29 | CC(C)CC1=C(COc2ccc(CCC(=O)O)c(Cl)c2)CCC1 [Compound 394, 3-[2-chloro-4-[(2-isobutylcyclopenten-1-yl)methoxy]phenyl]Propanoic Acid] | 1410 | 129
30 | O=C(O)CCc1ccc(OCC2=C(C3CCCC3)CCC2)cc1 [Compound 395, 3-[4-[(2-cyclopentylcyclopenten-1-yl)methoxy]phenyl]Propanoic Acid] | 255 | 188
31 | O=C(O)CCc1ccc(OCC2=C(C3CCC3)CCC2)cc1 [Compound 397, 3-[4-[(2-cyclobutylcyclopenten-1-yl)methoxy]phenyl]Propanoic Acid] | 592 | 418
32 | O=C(O)CCc1ccc(OCC2=C(C3CCCC3)CCC2)cc1C(F)(F)F [Compound 398, 3-[4-[(2-cyclopentylcyclopenten-1-yl)methoxy]-2-(trifluoromethyl)phenyl]Propanoic Acid] | 556 | 8
33 | O=C(O)CCc1ccc(OCC2=C(C3CCC3)CCC2)cc1C(F)(F)F [Compound 399, 3-[4-[(2-cyclobutylcyclopenten-1-yl)methoxy]-2-(trifluoromethyl)phenyl]Propanoic Acid] | 671 | 15
34 | O=C(O)CCc1ccc(OCC2=C(C3CCC3)CCC2)cc1Cl [Compound 400, 3-[2-chloro-4-[(2-cyclobutylcyclopenten-1-yl)methoxy]phenyl]Propanoic Acid] | 995 | 135
35 | O=C(O)CCc1ccc(OCC2=C(c3ccc(F)cc3)CC(F)(F)C2)cc1Cl [Compound 401, 3-[2-chloro-4-[[4,4-difluoro-2-(4-fluorophenyl)cyclopenten-1-yl]methoxy]phenyl]Propanoic Acid] | 304 | 311
